# US11827629B2, “CDGSH iron sulfur domain 2 activators and use thereof” (National Health Research Institutes, priority 2021, dated 2023)
# How the values were obtained:
# Cisd2 hKO-het mice = assay: In vivo NAFLD study in Cisd2 hKO-het mice (histopathology, serum biochemistry); conditions: Cisd2 hKO-het male mice, 0.015 wt % in diet for 4 weeks
# Procedure: Compound 28 of this invention was evaluated for its anti-nonalcoholic fatty liver disease (NAFLD) effect and in vivo toxicity following an assay described below.
# Cisd2 floxed allele (Cisd2 f/f) mice were prepared following a procedure described in Wang et al., Hum. Mol. Genet. 23, 4770-85(2014). To obtain Cisd2 heterozygous hepatocyte-specific knockout (Cisd2 hKO-het, Cisd2 f/+; Alb-Cre Tg), Cisd2 f/f mice were bred with Albumin-Cre transgenic (Alb-Cre Tg, JAX003574) mice. After one generation, Cisd2 hKO-het mice were obtained. Male mice were chosen to be used in this study. All mice have a pure or congenic C57BL/6 background and were bred/housed in a specific pathogen-free facility with a 12 h light/12 h dark cycle at a temperature of 20-22° C. Groups of mice at 8 weeks old were provided a diet (AIN93G, TestDiet) containing a vehicle (0.14 wt % of DMF and 0.15 wt % of Cremophor® EL) or compound 28 (0.015 wt %) for 4 weeks.
# Histopathology was used to evaluate the efficacy of Compound 28 in ameliorating NAFLD. Liver tissues were collected and fixed with 10% formalin at 4° C. overnight. They were then processed in a tissue processor (STP120, MICROM), followed by embedding in paraffin. H&E of tissue sections (3-4 m) were carried out by a standard protocol. […]
# Male C57BL/6 mice = assay: In vivo doxorubicin-induced cachexia and hepatotoxicity; conditions: 1 mg/kg i.p. twice a day for 2 days, doxorubicin 25 mg/kg i.p.
# Procedure: Compound 28 was used in rescuing doxorubicin-induced cachexia and hepatotoxicity in the following in vivo study.
# Male C57BL/6 mice between 7 and 8 months were pretreated with Compound 28 (1 mg/kg) or a vehicle (1.5 wt % of DMF and 3 wt % of Cremophor® EL in PBS) via intraperitoneal injection (i.p.) twice a day for 2 days. At day 0, 1 hour after the treatment with compound 28, doxorubicin (25 mg/kg, i.p.) or another vehicle (10% DMSO in normal saline) were injected into mice.
# Different tissues including livers, cardiac muscle (left ventricle), skeletal muscle (gastrocnemius), brown adipose tissue, and white adipose tissue were weighted and collected after mice were sacrificed. The tissues were fixed with 10% formalin at 4° C. overnight, processed in a tissue processor, and then embedded in paraffin. H&E of tissue sections (3-4 m) were carried out by a standard protocol as described above.
smiles,measurement,setting,value
"O=C(CS(=O)(=O)c1nccs1)N1Cc2ccccc2C1 [Compound 28, 1-(1,3-dihydro-2H-isoindol-2-yl)-2-(1,3-thiazol-2-ylsulfonyl)ethanone]",anti-nonalcoholic fatty liver disease (NAFLD) effect,Cisd2 hKO-het mice; liver histopathology,ameliorated NAFLD in Cisd2 hKO-het mice
same,in vivo toxicity,"Cisd2 hKO-het mice; serum ALT, AST, BUN, CRE",without observed toxicity
same,effect on doxorubicin-induced hepatotoxicity,Male C57BL/6 mice,alleviated doxorubicin-induced hepatotoxicity
same,effect on doxorubicin-induced cachexia,Male C57BL/6 mice; tissue weights,alleviated doxorubicin-induced hepatotoxicity and cachexia
